{"source": "paper PMC4646457", "about": "(PLoS ONE, 2015)", "origin": "cited, not measured here", "details": "refractory advanced or metastatic breast cancer; ref ZM2006/00137/00 (EGF100151); cited from earlier work"}
{"smiles": "CCCCCOC(=O)Nc1nc(=O)n([C@@H]2O[C@H](C)[C@@H](O)[C@H]2O)cc1F", "note": "[capecitabine]", "values": [{"measurement": "median time to progression", "value": 18.6, "unit": "weeks"}]}
